Laboratory results as given in patent US20080214844A1, “Icaritin and desmethylicaritin as anti-cancer agents” (priority 2007, published 2008).
pIC50: −log10 of the molar value.

Legend:
D145 = assay: MTT cell viability assay, D145; type: cell-based, human; conditions: Homo sapiens, 72 h, D145, Prostate, 3 days culture
Experimental: (§1) 26 cancer cell lines were grown in normal growth medium in the presence of different concentrations Icaritin or Desmethylicaritin. After culture for 3 days, the cell viability was then measured by an MTT assay. […] Some EC50s were lower than 10 uM for these two compounds. […] Whereas, normal human mammary gland epithelial cells (MCF10A) were not sensitive to Icaritin and Desmethylicaritin. These cells grew well when treated with these two compounds at a concentration of 50 uM.

Widr = assay: MTT cell viability assay, Widr; type: cell-based, human; conditions: Homo sapiens, 72 h, Colon, 3 days culture
Experimental: as §1

HT29 = assay: MTT cell viability assay, HT29; type: cell-based, human; conditions: Homo sapiens, HT-29, 72 h, HT29, Colon, 3 days culture
Experimental: as §1

LoVo = assay: MTT cell viability assay, LoVo; type: cell-based, human; conditions: Homo sapiens, 72 h, Colon, 3 days culture
Experimental: as §1

NCI-H23 = assay: MTT cell viability assay, NCI-H23; type: cell-based, human; conditions: Homo sapiens, 72 h, NCI-H23, Lung, 3 days culture
Experimental: as §1

A549 = assay: MTT cell viability assay, A549; type: cell-based, human; conditions: Homo sapiens, 72 h, A549, Lung, 3 days culture
Experimental: as §1

MDA-MB-435 = assay: MTT cell viability assay, MDA-MB-435; type: cell-based, human; conditions: Homo sapiens, 72 h, MDA-MB-435, Breast, 3 days culture
Experimental: as §1

AU-565 = assay: MTT cell viability assay, AU-565; type: cell-based, human; conditions: Homo sapiens, AU565, 72 h, AU-565, Breast, 3 days culture
Experimental: as §1

Caki-1 = assay: MTT cell viability assay, Caki-1; type: cell-based, human; conditions: Homo sapiens, 72 h, Caki-1, Kidney, 3 days culture
Experimental: as §1

ACHN = assay: MTT cell viability assay, ACHN; type: cell-based, human; conditions: Homo sapiens, 72 h, Kidney, 3 days culture
Experimental: as §1

786-O = assay: MTT cell viability assay, 786-O; type: cell-based, human; conditions: Homo sapiens, 786-0, 72 h, Kidney, 3 days culture
Experimental: as §1

SKOV3 = assay: MTT cell viability assay, SKOV3; type: cell-based, human; conditions: Homo sapiens, SK-OV-3, 72 h, SKOV3, Ovary, 3 days culture
Experimental: as §1

IGROV1 = assay: MTT cell viability assay, IGROV1; type: cell-based, human; conditions: Homo sapiens, IGROV-1, 72 h, IGROV1, Ovary, 3 days culture
Experimental: as §1

U-251 = assay: MTT cell viability assay, U-251; type: cell-based, human; conditions: Homo sapiens, 72 h, U-251, Glioblastoma, 3 days culture
Experimental: as §1

MCF-10a = assay: MTT cell viability assay, MCF-10a normal breast epithelial cells; type: cell-based, human
Experimental: as §1

[1] = system: LNCaP prostate cancer cells; assay: Lipogenesis: incorporation of 2-14C-labeled acetate into cellular lipids; type: cell-based; conditions: Homo sapiens, 5 h, 2-14C-acetate incorporation
Experimental: To investigate the ability of Icaritin and Desmethylicaritin to inhibit lipogenesis, LNCaP prostate cancer cells were treated with different concentrations of Icaritin and Desmethylicaritin for 5 h, and incorporation of 2-^14C-labeled acetate into cellular lipids was quantitated. Both of Icaritin and Desmethylicaritin inhibited lipogenesis by more than 50% at a concentration of 0.5 uM. Higher concentrations further reduced lipogenesis in a dose-dependent way. A further decline was observed after 24 h of exposure.

human lung cancer = assay: Human lung cancer xenograft model; type: in vivo
Excerpt: (§2) ICA was extensively biotransformed and converted to at least three metabolites: Icariside II (molecule weight=514), Icaritin (molecule weight=368), and Desmethylicaritin (molecule weight=354). […] Icaritin and Desmethylicaritin have huge potentials to be developed as novel and broad anti cancer drugs.
FIG. 2. Response of Human Lung tumor to treatment with Icaritin and Desmethyliciarityn.

human colon cancer = assay: Human colon cancer xenograft model; type: in vivo
Excerpt: as §2
FIG. 3. Response of Human Colon tumor to treatment with Icaritin and Desmethyliciarityn.

human prostate cancer = assay: Human prostate cancer xenograft model; type: in vivo
Excerpt: as §2
FIG. 1. Response of Human Prostate tumor to treatment with Icaritin and Desmethyliciarityn.

estrogen receptor = conditions: mediated by the estrogen receptor; cited from earlier work

COc1ccc(-c2oc3c(CC=C(C)C)c(O)cc(O)c3c(=O)c2O)cc1 [Icaritin]
pIC50 (D145): 5.03
pIC50 (Widr): 4.97
pIC50 (HT29): 4.82
pIC50 (LoVo): 4.99
pIC50 (NCI-H23): 5.22
pIC50 (A549): 4.97
pIC50 (MDA-MB-435): 4.99
pIC50 (AU-565): 5.10
pIC50 (Caki-1): 5.15
pIC50 (ACHN): 5.02
pIC50 (786-O): 4.98
pIC50 (SKOV3): 5.01
pIC50 (IGROV1): 4.96
pIC50 (U-251): 5.15
pIC50 (MCF-10a; Homo sapiens, 72 h, MCF-10a, Normal breast epithelial cells, 3 days culture, MTT): < 4.30
sensitivity of normal human mammary gland epithelial cells (MCF10A) (MCF-10a; cells grew well at 50 uM): not sensitive
inhibition at 0.5 µM [1]: > 50%
human lung cancer cell growth in vivo (human lung cancer): strongly inhibiting
human colon cancer cell growth in vivo (human colon cancer): strongly inhibiting
human prostate cancer cell growth in vivo (human prostate cancer): strongly inhibiting
estrogenic effect (estrogen receptor): week phytoestrogens
